Assay results: ChEMBL document CHEMBL1147287, “Antitumor agents, 107. New cytotoxic 4-alkylamino analogues of 4'-demethyl-epipodophyllotoxin as inhibitors of human DNA topoisomerase II” (1989)
Converted amounts (≈) assume the structure as drawn. The source made the active and inactive calls. The rule behind the calls is not given here.

Legend:
[1] = biological target: DNA topoisomerase 2-alpha (Homo sapiens) (UniProt P11388); test: Inhibition of human DNA topoisomerase 2 assessed as bacteriophage P4 DNA unknotting at 100 uM after 30 mins by agarose gel electrophoresis
[2] = biological target: DNA topoisomerase 2-alpha (Homo sapiens) (UniProt P11388); test: Inhibition of DNA topoisomerase 2 in human KB cells assessed as enzyme-[methyl-3H]thymidine-labeled DNA complex formation at 10 uM after 1 hr by K-SDS precipitation assay; assay type: cell-based
KB = test: Cytotoxicity against human KB cells assessed as reduction in cell number after 3 days by crystal violet staining; assay type: functional; details: 72 h, read-out: ED50 (the source's name)
[3] = biological target: DNA topoisomerase 2-alpha (Homo sapiens) (UniProt P11388); test: Inhibition of DNA topoisomerase 2 in human KB cells assessed as enzyme-[methyl-3H]thymidine-labeled DNA complex formation at 5 uM after 1 hr by K-SDS precipitation assay; assay type: cell-based
[4] = biological target: DNA topoisomerase 2-alpha (Homo sapiens) (UniProt P11388); test: Inhibition of human DNA topoisomerase 2 assessed as bacteriophage P4 DNA unknotting after 30 mins by agarose gel electrophoresis
[5] = Inhibition of microtubule polymerization

Chain of DNA topoisomerase 2-alpha (Homo sapiens) (P11388 whole entry): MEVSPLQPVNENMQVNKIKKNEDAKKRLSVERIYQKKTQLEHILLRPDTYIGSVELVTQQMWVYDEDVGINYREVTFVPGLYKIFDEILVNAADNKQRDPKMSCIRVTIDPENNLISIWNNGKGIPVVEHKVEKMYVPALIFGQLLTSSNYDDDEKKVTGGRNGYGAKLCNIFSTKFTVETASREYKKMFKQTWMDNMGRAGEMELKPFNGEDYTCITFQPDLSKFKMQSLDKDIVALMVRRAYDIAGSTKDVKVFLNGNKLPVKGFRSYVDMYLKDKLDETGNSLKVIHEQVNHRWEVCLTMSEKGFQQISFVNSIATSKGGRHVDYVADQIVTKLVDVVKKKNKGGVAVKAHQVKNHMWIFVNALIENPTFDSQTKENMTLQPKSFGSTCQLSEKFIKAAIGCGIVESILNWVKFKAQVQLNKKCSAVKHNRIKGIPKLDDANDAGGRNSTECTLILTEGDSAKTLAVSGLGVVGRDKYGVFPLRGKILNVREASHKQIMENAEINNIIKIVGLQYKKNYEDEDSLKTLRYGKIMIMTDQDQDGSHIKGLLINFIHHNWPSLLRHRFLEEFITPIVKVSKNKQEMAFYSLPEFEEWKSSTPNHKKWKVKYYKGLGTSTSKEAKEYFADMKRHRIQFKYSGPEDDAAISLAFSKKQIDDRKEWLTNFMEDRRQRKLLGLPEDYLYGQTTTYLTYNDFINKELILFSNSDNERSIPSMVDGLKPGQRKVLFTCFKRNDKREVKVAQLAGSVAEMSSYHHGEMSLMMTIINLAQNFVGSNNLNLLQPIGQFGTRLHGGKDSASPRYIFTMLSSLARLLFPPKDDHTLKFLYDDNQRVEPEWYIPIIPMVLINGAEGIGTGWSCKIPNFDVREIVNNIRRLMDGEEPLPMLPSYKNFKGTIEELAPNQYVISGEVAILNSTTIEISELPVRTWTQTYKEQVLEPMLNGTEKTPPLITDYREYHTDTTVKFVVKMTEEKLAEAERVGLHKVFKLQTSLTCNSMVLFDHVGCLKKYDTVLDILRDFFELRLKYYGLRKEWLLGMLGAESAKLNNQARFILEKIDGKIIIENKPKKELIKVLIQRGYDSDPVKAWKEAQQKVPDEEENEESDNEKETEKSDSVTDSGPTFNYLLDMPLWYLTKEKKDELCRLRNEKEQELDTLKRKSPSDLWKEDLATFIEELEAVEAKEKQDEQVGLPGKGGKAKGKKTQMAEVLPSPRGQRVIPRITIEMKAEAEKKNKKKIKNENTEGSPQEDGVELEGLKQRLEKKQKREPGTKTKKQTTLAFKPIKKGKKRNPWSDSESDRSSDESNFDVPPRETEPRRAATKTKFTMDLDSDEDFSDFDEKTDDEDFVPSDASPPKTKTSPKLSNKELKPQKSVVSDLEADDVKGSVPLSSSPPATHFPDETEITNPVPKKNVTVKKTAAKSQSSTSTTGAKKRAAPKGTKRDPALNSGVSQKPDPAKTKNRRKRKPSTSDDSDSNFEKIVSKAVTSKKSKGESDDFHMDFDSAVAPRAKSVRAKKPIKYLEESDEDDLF

COc1cc([C@@H]2c3cc4c(cc3[C@@H](NCCCO)[C@H]3COC(=O)[C@H]23)OCO4)cc(OC)c1O
inhibition [1]: 50% | inhibition [2]: 89.2% | EC50 (KB): 4 µg/mL (≈ 8.74 µM)

CCCN[C@@H]1c2cc3c(cc2[C@@H](c2cc(OC)c(O)c(OC)c2)[C@H]2C(=O)OC[C@@H]21)OCO3
inhibition [1]: 50% | inhibition [2]: 69.7% | EC50 (KB): < 0.4 µg/mL

COc1cc([C@@H]2c3cc4c(cc3[C@@H](NC(C)CO)[C@H]3COC(=O)[C@H]23)OCO4)cc(OC)c1O (stereo not given in full)
inhibition [1]: > 75% | inhibition [3]: 89.3% | ID50 [4]: 25 µM | EC50 (KB): 2.3 µg/mL (≈ 5.03 µM)

COc1cc([C@@H]2c3cc4c(cc3[C@@H](N)[C@H]3COC(=O)[C@H]23)OCO4)cc(OC)c1O
inhibition [1]: 50% | inhibition [2]: 36.4% | EC50 (KB): 0.19 µg/mL (≈ 0.476 µM)

COc1cc([C@@H]2c3cc4c(cc3[C@@H](NCCO)[C@H]3COC(=O)[C@H]23)OCO4)cc(OC)c1O
inhibition [1]: > 75% | inhibition [2]: 121% | inhibition [3]: 70.1% | ID50 [4]: 50 µM | EC50 (KB): 1.6 µg/mL (≈ 3.61 µM)

COc1cc([C@@H]2c3cc4c(cc3[C@@H](O)[C@H]3COC(=O)[C@H]23)OCO4)cc(OC)c1O [4'-DEMETHYLEPIPODOPHYLLOTOXIN]
inhibition [1]: 50% | inhibition [2]: 42.2% | EC50 (KB): 0.34 µg/mL (≈ 0.849 µM)

COc1cc([C@@H]2c3cc4c(cc3[C@H](O)[C@H]3COC(=O)[C@H]23)OCO4)cc(OC)c1O
inhibition [1]: 25% | inhibition [2]: 3.3% | EC50 (KB): 0.045 µg/mL (≈ 0.112 µM)

C=CCN[C@@H]1c2cc3c(cc2[C@@H](c2cc(OC)c(O)c(OC)c2)[C@H]2C(=O)OC[C@@H]21)OCO3
inhibition [1]: 75% | inhibition [2]: 84.2% | EC50 (KB): 3.4 µg/mL (≈ 7.74 µM)

COc1cc([C@@H]2c3cc4c(cc3[C@H](NCCO)[C@H]3COC(=O)[C@H]23)OCO4)cc(OC)c1O
inhibition [2]: 0% | EC50 (KB): > 1 µg/mL

COc1cc([C@@H]2c3cc4c(cc3[C@H](N)[C@H]3COC(=O)[C@H]23)OCO4)cc(OC)c1O
inhibition [1]: 25% | inhibition [2]: 8% | EC50 (KB): 0.25 µg/mL (≈ 0.626 µM)

COc1cc([C@@H]2c3cc4c(cc3[C@@H](O[C@@H]3O[C@@H]5CO[C@@H](C)O[C@H]5[C@H](O)[C@H]3O)[C@H]3COC(=O)[C@H]23)OCO4)cc(OC)c1O [ETOPOSIDE]
inhibition [1]: > 75% | inhibition [2]: 100% | inhibition [3]: 56.2% | ID50 [4]: 50 µM | EC50 (KB): 0.16 µg/mL (≈ 0.272 µM)

COCCN[C@@H]1c2cc3c(cc2[C@@H](c2cc(OC)c(O)c(OC)c2)[C@H]2C(=O)OC[C@@H]21)OCO3
inhibition [1]: 75% | inhibition [2]: 111% | EC50 (KB): > 4 µg/mL

COc1cc([C@@H]2c3cc4c(cc3[C@@H](NCC(C)O)[C@H]3COC(=O)[C@H]23)OCO4)cc(OC)c1O (stereo not given in full)
inhibition [1]: > 75% | inhibition [3]: 83.9% | ID50 [4]: 25 µM | EC50 (KB): 3.6 µg/mL (≈ 7.87 µM)

COc1cc([C@@H]2c3cc4c(cc3[C@H](O)[C@H]3COC(=O)[C@H]23)OCO4)cc(OC)c1OC
Activity [5]: inactive
